Results: patent US10947285B2, “Compounds, compositions and uses thereof for improvement of bone disorders” (Amolyt Pharma, priority 2017, dated 2021)
Non-standard residues stand in square brackets, D forms with d. Residues, ends and D or L forms follow the SMILES beside them. Primed or numbered codes have the meaning given here. No end group written: not given here. *: point of attachment. PEG20′ = PEG20 chain (pegylated), attached via a cysteine; C16 diacid = O=C(O)CCCCCCCCCCCCCCC(=O)*; Arachidoyl = CCCCCCCCCCCCCCCCCCCC(=O)*; Stearoyl = CCCCCCCCCCCCCCCCCC(=O)*; Palmitoyl = CCCCCCCCCCCCCCCC(=O)*; Myristoyl = CCCCCCCCCCCCCC(=O)*

Assays:
[1] = test system: MC-3T3 E1 clone 4 (CL4) osteoblast cells; test: in vitro osteoblast differentiation bioassay (stimulation of osteocalcin protein synthesis); assay type: cell-based
Protocol: Each peptide was tested in a biologic assay measuring its ability to stimulate differentiation of osteoblast cells over a 18-21 day interval (Table 8) or a 14-15 day interval (Table 9) as assessed by the stimulation of osteocalcin protein synthesis. MC-3T3 E1 clone 4 (CL4) osteoblast cells were obtained from ATCC (Manassas, Va., USA). Cells were cultured in α-MEM containing 10% fetal bovine serum (FBS; Thermo Fisher Scientific, Pittsburgh, Pa., USA). After confluency, culture medium was changed to differentiation medium (DM), which contained 10% FBS plus 50 μg/mL ascorbic acid and 4 mM β-glycerol phosphate, with or without a test peptide (1 μg/mL in Table 8 or 1 μmol/L in Table 9). Fresh DM, with or without test peptide, was applied every 72 hours. The cell monolayers were lysed in a modified radioimmunoprecipitation assay (RIPA) buffer. Total cellular protein in the lysates was determined using BCA (Thermo Fisher Scientific, Rockford, Ill., USA). Cell proteins are separated on SDS-PAGE gel and transferred on PVDF membrane for analysis. Osteocalcin detection was performed using anti-osteocalcin antibody at 1:200 dilution (Santa Cruz Biotechnology, Inc, Santa Cruz, Calif., USA) or at 1:3000 dilution (NPT Inc., Chapel Hill, N.C., USA) and visualized using enhanced chemiluminescence (Thermo Fisher Scientific, Rockford, Ill., USA).
The peptide was tested at different concentrations in a biologic assay measuring its ability to stimulate differentiation of osteoblast cells over a 18 day interval as assessed by the stimulation of osteocalcin protein synthesis. MC-3T3 E1 clone 4 (CL4) osteoblast cells were obtained from ATCC (Manassas, Va., USA). Cells were cultured in α-MEM containing 10% fetal bovine serum (FBS; Thermo Fisher Scientific, Pittsburgh, Pa., USA). After confluency, culture medium was changed to differentiation medium (DM), which contained 10% FBS plus 50 μg/mL ascorbic acid and 4 mM β-glycerol phosphate, with or without an ascending dose of the peptide from 0.1 μg/mL to 4 μg/mL. Fresh DM, with or without the peptide, was applied every 72 hours. The cell monolayers were lysed in a modified radioimmunoprecipitation assay (RIPA) buffer. Total cellular protein in the lysates was determined using BCA (Thermo Fisher Scientific, Rockford, Ill., USA). Cell proteins are separated on SDS-PAGE gel and transferred on PVDF membrane for analysis. Osteocalcin detection was performed using anti-osteocalcin antibody at 1:200 dilution (Santa Cruz Biotechnology, Inc, Santa Cruz, Calif., USA) and visualized using enhanced chemiluminescence (Thermo Fisher Scientific, Rockford, Ill., USA).
Each peptide was tested in a biologic assay measuring its ability to stimulate differentiation of osteoblast cells over a 15 day interval as assessed by the stimulation of osteocalcin protein synthesis. MC-3T3 E1 clone 4 (CL4) osteoblast cells were obtained from ATCC (Manassas, Va., USA). Cells were cultured in α-MEM containing 10% fetal bovine serum (FBS; Thermo Fisher Scientific, Pittsburgh, Pa., USA). After confluency, culture medium was changed to differentiation medium (DM), which contained 10% FBS plus 50 μg/mL ascorbic acid and 4 mM β-glycerol phosphate, with or without a test peptide (1 μg/mL). Fresh DM, with or without test peptide, was applied every 72 hours for 15 days. The cell monolayers were lysed in a modified radioimmunoprecipitation assay (RIPA) buffer. Total cellular protein in the lysates was determined using BCA (Thermo Fisher Scientific, Rockford, Ill., USA). Cell proteins are separated on SDS-PAGE gel and transferred on PVDF membrane for analysis. Osteocalcin detection was performed using anti-osteocalcin antibody at 1:200 dilution (Santa Cruz Biotechnology, Inc, Santa Cruz, Calif., USA) and visualized using enhanced chemiluminescence (Thermo Fisher Scientific, Rockford, Ill., USA). […]

[2] = Pharmacokinetic of acylated HBD-1 fragment analogs in male Sprague Dawley rats after subcutaneous injection; assay type: in vivo; conditions: Table 24, sc, 1 μmol net peptide/kg
Protocol: The peptides were reconstituted in saline (0.9% NaCl). Three male Sprague Dawley rats (approximately 6 weeks of age) were used per group. Subcutaneous doses were administered into the right flank of each animal at the target dose level of 1 μmol net peptide/kg. Following dosing, serial whole blood samples (ca. 0.3 mL) were collected from retro-orbital sinus into K2EDTA treated containers. Following each blood sample collection, samples were placed into a cooling block at 4° C. Samples were collected prior to dosing then at 15 and 30 minutes then 1, 2, 4, 6, 8 and 24 hours post dose for subcutaneous injection. Blood samples were centrifuged at 3500×rpm for 10 minutes at 4° C. and resultant plasma aspirated off into clean fully, labelled tubes. Plasma samples were snap frozen following aspiration then stored at −80° C. The peptides were extracted with acetonitrile:water (75:25, v/v) and analyzed using developed LC-MS/MS methods as described in Example 9. The limits of detection of these methods are 0.003 nmol/mL for HBD1 (1-13) with palmitic acid at the N-terminus (C16:0), 0.0008 nmol/mL for HBD1 (3-11) with palmitic acid at the N-terminus (C16:0), 0.0070 nmol/mL for HBD1 (3-11) with stearic acid at the N-terminus (C18:0), and 0.0015 nmol/mL for HBD1 (3-11) with myristic acid at the N-terminus (C14:0), HBD1 (3-11) with arachidic acid at the N-terminus (C20:0), HBD1 (3-11) with palmitic diacid at the N-terminus (C16:0-diacid), HBD1 (3-11) with palmitic acid at the C-terminus (C16:0). All values below these limits of quantification were considered as zero.

[3] = Stability of HBD1 fragments in human plasma; assay type: in vitro ADME; conditions: 24 and 48 hours incubation at 37° C.
Protocol: The peptides were spiked at 1 μg/mL (peptide backbone) into pre-warmed human K2EDTA plasma (at 37° C.) and incubated for up to 48 hours. Aliquots of plasma were extracted at specific time points (0, 24 and 48 hours post spike). Extraction was performed with acetonitrile:water (75:25, v/v) for HBD1 (1-13), HBD1 (1-13) with palmitic acid at the N-terminus (C16:0), HBD1 (3-11) with palmitic acid at the N-terminus (C16:0)) and HBD1 (3-11) with stearic acid at the N-terminus (C18:0) or with acetonitrile:water:formic acid (75:25:0.1, v/v/v) for HBD1 (3-11) and cyclic HBD1 (3-11). The peptides were analyzed using developed LC (C18 reverse phase column)—positive ion electrospray MS/MS methods specific to each peptide. The peak area at each time point was expressed as a percentage of the value obtained for the t=0 minutes time point.

[4] = Table 17, PEGylated fragments, 2 μg/mL, 18-21 day interval

Row | Molecule | Fold increase vs DM ± SE [1, 4] | Tlast (last time point with detectable peptide) [2] | further results
1 | 63 ([PEG20′]CKHHLGLEEPKKLR; not fully specified (some residues); printed as PEG20-C-KHHLGLEEPKKLR) [compound 63] | 1.4 ± 0.3 fold | – | –
2 | 64 (KHHLGLEEPKKLR; not fully specified; MOD_RES (13)..(13) Pegylated) [compound 64] | 2.2 ± 0.4 fold | – | –
3 | 65 ([PEG20′]CHHLGLEEPKK; not fully specified (some residues); printed as PEG20-C-HHLGLEEPKK) [compound 65] | 1.4 ± 0.1 fold | – | –
4 | 66 (HHLGLEEPKK; not fully specified; MOD_RES (10)..(10) Pegylated) [compound 66] | 2.2 ± 0.2 fold | – | –
5 | 67 ([PEG20′]CHLGLEEPKK; not fully specified (some residues); printed as PEG20-C-HLGLEEPKK) [compound 67] | 1.9 ± 0.2 fold | – | –
6 | CCCCCCCCCCCCCC(=O)N[C@@H](Cc1c[nH]cn1)C(=O)N[C@@H](CC(C)C)C(=O)NCC(=O)N[C@@H](CC(C)C)C(=O)N[C@@H](CCC(=O)O)C(=O)N[C@@H](CCC(=O)O)C(=O)N1CCC[C@H]1C(=O)N[C@@H](CCCCN)C(=O)N[C@@H](CCCCN)C(=O)O [compound 71] (Myristoyl-HLGLEEPKK-OH; C-terminus assumed) | – | 6 h | –
7 | CCCCCCCCCCCCCCCC(=O)N[C@@H](Cc1c[nH]cn1)C(=O)N[C@@H](CC(C)C)C(=O)NCC(=O)N[C@@H](CC(C)C)C(=O)N[C@@H](CCC(=O)O)C(=O)N[C@@H](CCC(=O)O)C(=O)N1CCC[C@H]1C(=O)N[C@@H](CCCCN)C(=O)N[C@@H](CCCCN)C(=O)O [compound 72] (Palmitoyl-HLGLEEPKK-OH) | – | 8 h | stability in human plasma (in words) [3]: plasma stability profile similar to that of the corresponding unconjugated linear peptide HBD1 (3-11)
8 | CCCCCCCCCCCCCCCCCC(=O)N[C@@H](Cc1c[nH]cn1)C(=O)N[C@@H](CC(C)C)C(=O)NCC(=O)N[C@@H](CC(C)C)C(=O)N[C@@H](CCC(=O)O)C(=O)N[C@@H](CCC(=O)O)C(=O)N1CCC[C@H]1C(=O)N[C@@H](CCCCN)C(=O)N[C@@H](CCCCN)C(=O)O [compound 73] (Stearoyl-HLGLEEPKK-OH) | – | 8 h | Fold increase vs DM ± SE ([1]; Table 19, dose 1.0 μM, 18 day interval): 3.46 ± 0.47 fold; Fold increase vs DM ± SE ([1]; Table 19, dose 2.0 μM, 18 day interval): 4.48 ± 0.07 fold; Fold increase vs DM ± SE ([1]; Table 19, dose 3.0 μM, 18 day interval): 5.66 ± 0.45 fold; stability in human plasma (in words) [3]: plasma stability profile similar to that of the corresponding unconjugated linear peptide HBD1 (3-11)
9 | CCCCCCCCCCCCCCCCCCCC(=O)N[C@@H](Cc1c[nH]cn1)C(=O)N[C@@H](CC(C)C)C(=O)NCC(=O)N[C@@H](CC(C)C)C(=O)N[C@@H](CCC(=O)O)C(=O)N[C@@H](CCC(=O)O)C(=O)N1CCC[C@H]1C(=O)N[C@@H](CCCCN)C(=O)N[C@@H](CCCCN)C(=O)O [compound 74] (Arachidoyl-HLGLEEPKK-OH; C-terminus assumed) | – | 8 h | –
10 | CC(C)C[C@H](NC(=O)CNC(=O)[C@H](CC(C)C)NC(=O)[C@H](Cc1c[nH]cn1)NC(=O)CCCCCCCCCCCCCCC(=O)O)C(=O)N[C@@H](CCC(=O)O)C(=O)N[C@@H](CCC(=O)O)C(=O)N1CCC[C@H]1C(=O)N[C@@H](CCCCN)C(=O)N[C@@H](CCCCN)C(=O)O [compound 75] ({C16 diacid}-HLGLEEPKK-OH; C-terminus assumed) | – | 8 h | –
11 | CCCCCCCCCCCCCCCC(=O)NCCCC[C@H](NC(=O)[C@H](CCCCN)NC(=O)[C@@H]1CCCN1C(=O)[C@H](CCC(=O)O)NC(=O)[C@H](CCC(=O)O)NC(=O)[C@H](CC(C)C)NC(=O)CNC(=O)[C@H](CC(C)C)NC(=O)[C@@H](N)Cc1c[nH]cn1)C(=O)O [compound 76] (H-HLGLEEPKK(Palmitoyl)-OH; N-terminus and C-terminus assumed) | – | 8 h | –
12 | CC(C)C[C@@H]1NC(=O)CNC(=O)[C@H](CC(C)C)NC(=O)[C@H](Cc2c[nH]cn2)NC(=O)[C@H](CCCCN)NC(=O)[C@H](CCCCN)NC(=O)[C@@H]2CCCN2C(=O)[C@H](CCC(=O)O)NC(=O)[C@H](CCC(=O)O)NC1=O [compound 77] (cyclo(EEPKKHLGL)) | – | – | stability in human plasma (in words) [3]: plasma stability profile similar to that of the corresponding unconjugated linear peptide HBD1 (3-11)
13 | CCCCCCCCCCCCCCCC(=O)N[C@@H](CCCCN)C(=O)N[C@@H](Cc1c[nH]cn1)C(=O)N[C@@H](Cc1c[nH]cn1)C(=O)N[C@@H](CC(C)C)C(=O)NCC(=O)N[C@@H](CC(C)C)C(=O)N[C@@H](CCC(=O)O)C(=O)N[C@@H](CCC(=O)O)C(=O)N1CCC[C@H]1C(=O)N[C@@H](CCCCN)C(=O)N[C@@H](CCCCN)C(=O)N[C@@H](CC(C)C)C(=O)N[C@@H](CCCNC(=N)N)C(=O)O [compound 78] (Palmitoyl-KHHLGLEEPKKLR-OH) | – | 8 h | –
